{"source": "patent US20250017927A1", "about": "“PHARMACEUTICAL COMPOSITION AND USE THEREOF” (SHANGHAI ALLIST PHARMACEUTICALS CO., LTD., priority 2021, published 2025)", "key": {"[1]": {"system": "Ba/F3 ERBB2 V777_G778insGC", "experiment": "Proliferation inhibition, CellTiter Glo, Ba/F3 ERBB2 V777_G778insGC", "format": "cell-based, mouse", "conditions": "for IC50: Mus musculus, BaF3, Ba/F3 ERBB2 V777_G778insGC stably transfected cells, 72 hours", "source_text": "(§1) The proliferation inhibition activity of the compound (furmonertinib mesilate) on four cells of Ba/F3 EGFR G719S, Ba/F3 EGFR G724S, Ba/F3 EGFR S768I, and Ba/F3 EGFR L861Q stably expressing EGFR rare mutation proteins, one cell of Ba/F3 EGFR G719S/T263P stably expressing EGFR double mutation proteins, and three cells of Ba/F3 ERBB2 A775_G776insYVMA, Ba/F3 ERBB2 V777_G778insGC, and Ba/F3 ERBB2 P780_Y781insGSP stably expressing different ERBB2 exon 20 insertion mutation proteins in mouse pro-B cells Ba/F3 in vitro was determined by the CellTiter Glo method.\n(§2) Cell source: Ba/F3 EGFR G719S, Ba/F3 EGFR G724S, Ba/F3 EGFR S768I, Ba/F3 EGFR L861Q, Ba/F3 EGFR G719S/T263P, Ba/F3 ERBB2 A775_G776insYVMA, Ba/F3 ERBB2 V777_G778insGC, Ba/F3 ERBB2 P780_Y781insGSP cells were provided by KYinno Biotechnology (Beijing) Co., Ltd.\n(§3) Ba/F3 EGFR G719S, Ba/F3 EGFR G724S, Ba/F3 EGFR S768I, Ba/F3 EGFR L861Q, Ba/F3 EGFR G719S/T263P, Ba/F3 ERBB2 A775_G776insYVMA, Ba/F3 ERBB2 V777_G778insGC, Ba/F3 ERBB2 P780_Y781insGSP cells were cultivated in RPMI1640 complete culture medium containing 10% fetal bovine serum. […]\n(§4) The CellTiter-Glo reagent (a luciferase ATP bioluminescence detection reagent, commercially available from Promega) was thawed, the 96-well plates inoculated with the cells were taken out from the CO2 constant temperature incubator, and equilibrated to room temperature (about 30 minutes), 100 μL CellTiter-Glo reagent was added to each well, the cells were lyzed by shaking on an orbital shaker for 5 minutes, […] at room temperature for 20 minutes to wait for the luminescence intensity to stabilize, then the luminescence intensity (Lum) was determined with a microplate reader. The cell survival rate at each concentration of the compound was calculated.\n(§5) The data were analyzed using GraphPad Prism 7.0 software, fitted with nonlinear S-curve regression to give a dose-effect curve, and IC50 values were calculated therefrom, as shown in Table 1."}, "[2]": {"system": "Ba/F3 ERBB2 P780_Y781insGSP", "experiment": "Proliferation inhibition, CellTiter Glo, Ba/F3 ERBB2 P780_Y781insGSP", "format": "cell-based, mouse", "conditions": "for IC50: Mus musculus, BaF3, Ba/F3 ERBB2 P780_Y781insGSP stably transfected cells, 72 hours", "source_text": "as §1, §2, §3, §4, §5"}, "Ba/F3 EGFR G724S": {"system": "Ba/F3 EGFR G724S", "experiment": "Proliferation inhibition, CellTiter Glo, Ba/F3 EGFR G724S", "format": "cell-based, mouse", "conditions": "for IC50: Mus musculus, Ba/F3 EGFR G724S stably transfected cells, 72 hours", "source_text": "as §1, §2, §3, §4, §5"}, "Ba/F3 EGFR L861Q": {"system": "Ba/F3 EGFR L861Q", "experiment": "Proliferation inhibition, CellTiter Glo, Ba/F3 EGFR L861Q", "format": "cell-based, mouse", "conditions": "for IC50: Mus musculus, Ba/F3 EGFR L861Q stably transfected cells, 72 hours", "source_text": "as §1, §2, §3, §4, §5"}, "Ba/F3 EGFR G719S": {"system": "Ba/F3 EGFR G719S", "experiment": "Proliferation inhibition, CellTiter Glo, Ba/F3 EGFR G719S", "format": "cell-based, mouse", "conditions": "for IC50: Mus musculus, Ba/F3 EGFR G719S stably transfected cells, 72 hours", "source_text": "as §1, §2, §3, §4, §5"}, "[3]": {"system": "Ba/F3 ERBB2 A775_G776insYVMA", "experiment": "Proliferation inhibition, CellTiter Glo, Ba/F3 ERBB2 A775_G776insYVMA", "format": "cell-based, mouse", "conditions": "for IC50: Mus musculus, BaF3, Ba/F3 ERBB2 A775_G776insYVMA stably transfected cells, 72 hours", "source_text": "as §1, §2, §3, §4, §5"}, "Ba/F3 EGFR S768I": {"system": "Ba/F3 EGFR S768I", "experiment": "Proliferation inhibition, CellTiter Glo, Ba/F3 EGFR S768I", "format": "cell-based, mouse", "conditions": "for IC50: Mus musculus, Ba/F3 EGFR S768I stably transfected cells, 72 hours", "source_text": "as §1, §2, §3, §4, §5"}, "Ba/F3 EGFR G719S/T263P": {"system": "Ba/F3 EGFR G719S/T263P", "experiment": "Proliferation inhibition, CellTiter Glo, Ba/F3 EGFR G719S/T263P", "format": "cell-based, mouse", "conditions": "for IC50: Mus musculus, Ba/F3 EGFR G719S/T263P stably transfected cells, 72 hours", "source_text": "as §1, §2, §3, §4, §5"}, "[4]": {"system": "Ba/F3 ERBB2 V777_G778insGC xenograft", "experiment": "Anti-tumor effect in Ba/F3 ERBB2 V777_G778insGC (KC-1410) cell xenograft model", "format": "in vivo", "conditions": "for anti-tumor activity: B-NDG mice", "source_text": "This study was used for evaluate the anti-tumor efficacy of three compounds alone in the female (B-NDG) immune deficiency mice bearing tumors of Ba/F3 ERBB2 V777_G778insGC engineered cells.\nExperimental animals: B-NDG mice, female, 6-8 weeks, and weighing 18-20 g.\nAnimal modeling and random grouping: Ba/F3 ERBB2 V777_G778insGC cells were cultivated, cells were collected, and re-suspended and counted in serum-free medium, the re-suspended cells with the addition of a matrigel at 1:1 were subcutaneous inoculated at 1×10^6 cells/0.1 mL in B-NDG mice. When the average tumor volume was about 80-120 mm^3, the animals were randomly grouped into four experiment groups according to the tumor size. Each group contained 12 mice.\nThe experimental scheme: B-NDG mice were subcutaneously inoculated with Ba/F3 ERBB2 V777_G778insGC cells to establish a cell-line-derived xenograft model.\nThe curves for the tumor volume change of four experimental groups were shown in FIG. 3, and the curves for the body weight change of four experimental groups were shown in FIG. 4."}, "[5]": {"conditions": "orally once per day, 20 mg-240 mg; cited from earlier work"}, "[6]": {"system": "EGFR T790M positive advanced non-small cell lung cancer", "conditions": "oral 80 mg daily dose, patients with progressive disease after prior systematic anti-tumor therapy; cited from earlier work"}, "[7]": {"system": "Ba/F3 ERBB2 A775_G776insYVMA subcutaneous xenograft", "experiment": "Anti-tumor effect in Ba/F3 ERBB2 A775_G776insYVMA CDX tumor model", "conditions": "30 mg/kg oral once per day for two weeks", "description": "Experimental animals: BALB/c nude mice, female, 8-9 weeks (mouse week-old when tumor cells were inoculated), and weighing 13.7-17.7 g, purchased from the Shanghai branch of Beijing Vital River Laboratory Animal Technology Co., Ltd.\nAnimal modeling and random grouping: Ba/F3 ERBB2 A775_G776insYVMA cells were cultivated, amplified to two T175 cm^2 culture flasks, cells were collected, and resuspended and counted in serum-free medium DMEM with the addition of a matrix gel at 1:1, and inoculated at 2×10^6 cells/0.1 mL in Balb/c nude mouse right front scapular subcutaneous. When the average tumor volume was about 160 mm^3, the animals were randomly grouped into three experiment groups according to the tumor size. Each group contained 6 mice. The grouping day was defined as Day 0, i.e., DO.\nThe experimental scheme: BALB/c nude mice were subcutaneously inoculated with Ba/F3 ERBB2 A775_G776insYVMA cells, and a cell line heterograft tumor model was established. The experiment was divided into 30 mg/kg group of AZD9291, 30 mg/kg group of furmonertinib mesilate and a vehicle control group, wherein each group contained 6 animals, orally administered with the administration volume of 10 uL/g, and the vehicle control group was administered with the same amount of vehicle, the administration was carried out once per day and lasted for two weeks. During the whole experiment, the body weight and the tumor sizes of the mice were measured twice each week, and whether or not the presence of toxic reactions was observed.\nTumor Volume (TV) was calculated by: TV=½×a×b×b, where a and b represented the length and the width of tumor, respectively."}}}
{"smiles": "C=CC(=O)Nc1cc(Nc2nccc(-c3cn(C)c4ccccc34)n2)c(OC)cc1N(C)CCN(C)C", "note": "[AZD9291, reference compound]", "values": [{"measurement": "IC50", "setting": "[1]", "result": 77, "unit": "nM"}, {"measurement": "IC50", "setting": "[2]", "result": 96, "unit": "nM"}, {"measurement": "IC50", "setting": "Ba/F3 EGFR G724S", "result": 139, "unit": "nM"}, {"measurement": "IC50", "setting": "Ba/F3 EGFR L861Q", "result": 41, "unit": "nM"}, {"measurement": "IC50", "setting": "Ba/F3 EGFR G719S", "result": 68, "unit": "nM"}, {"measurement": "IC50", "setting": "[3]", "result": 489, "unit": "nM"}, {"measurement": "IC50", "setting": "Ba/F3 EGFR S768I", "result": 137, "unit": "nM"}, {"measurement": "IC50", "setting": "Ba/F3 EGFR G719S/T263P", "result": 191, "unit": "nM"}]}
{"smiles": "C=CC(=O)Nc1cc(Nc2nccc(-c3cn(C)c4ccccc34)n2)c(OCC(F)(F)F)nc1N(C)CCN(C)C", "note": "[furmonertinib mesilate, N-{2-{[2-(dimethylamino)ethyl](methyl)amino}-6-(2,2,2-trifluoroethoxy)-5-{[4-(1-methyl-1H-indol-3-yl)pyrimidin-2-yl]amino}pyridin-3-yl}acrylamide]", "values": [{"measurement": "anti-tumor activity", "setting": "[4]; 15 mg/kg oral once per day for two weeks", "result": "moderate anti-tumor activity"}, {"measurement": "anti-tumor activity", "setting": "[4]; 30 mg/kg oral once per day for two weeks", "result": "extremely significant anti-tumor activity"}, {"measurement": "anti-tumor activity", "setting": "[4]; 50 mg/kg oral once per day for two weeks", "result": "extremely significant anti-tumor activity"}, {"measurement": "effect on the body weight of mice", "setting": "[4]; 15, 30 and 50 mg/kg groups", "result": "little effect on the body weight"}, {"measurement": "safety", "setting": "[4]; 15, 30 and 50 mg/kg groups", "result": "good safety"}, {"measurement": "proliferation inhibition activity", "setting": "[1]; Ba/F3 ERBB2 V777_G778insGC, result in words", "result": "good proliferation inhibition activity"}, {"measurement": "IC50", "setting": "[1]", "result": 25, "unit": "nM"}, {"measurement": "proliferation inhibition activity", "setting": "[2]; Ba/F3 ERBB2 P780_Y781insGSP, result in words", "result": "good proliferation inhibition activity"}, {"measurement": "IC50", "setting": "[2]", "result": 33, "unit": "nM"}, {"measurement": "proliferation inhibition activity", "setting": "Ba/F3 EGFR G724S; Ba/F3 EGFR G724S, result in words", "result": "good proliferation inhibition activity"}, {"measurement": "IC50", "setting": "Ba/F3 EGFR G724S", "result": 35, "unit": "nM"}, {"measurement": "proliferation inhibition activity", "setting": "Ba/F3 EGFR L861Q; Ba/F3 EGFR L861Q, result in words", "result": "good proliferation inhibition activity"}, {"measurement": "IC50", "setting": "Ba/F3 EGFR L861Q", "result": 13, "unit": "nM"}, {"measurement": "proliferation inhibition activity", "setting": "Ba/F3 EGFR G719S; Ba/F3 EGFR G719S, result in words", "result": "good proliferation inhibition activity"}, {"measurement": "IC50", "setting": "Ba/F3 EGFR G719S", "result": 19, "unit": "nM"}, {"measurement": "proliferation inhibition activity", "setting": "[3]; Ba/F3 ERBB2 A775_G776insYVMA, result in words", "result": "good proliferation inhibition activity"}, {"measurement": "IC50", "setting": "[3]", "result": 118, "unit": "nM"}, {"measurement": "proliferation inhibition activity", "setting": "Ba/F3 EGFR S768I; Ba/F3 EGFR S768I, result in words", "result": "good proliferation inhibition activity"}, {"measurement": "IC50", "setting": "Ba/F3 EGFR S768I", "result": 33, "unit": "nM"}, {"measurement": "adverse events of subjects", "setting": "[5]", "result": "mild or moderate"}, {"measurement": "dose-limiting toxicity", "setting": "[5]", "result": "does not occur"}, {"measurement": "dose-related toxic reaction", "setting": "[5]", "result": "does not occur"}, {"measurement": "tolerance and safety", "setting": "[5]", "result": "good"}, {"measurement": "anti-tumor effect", "setting": "[6]", "result": "relatively good anti-tumor effect"}, {"measurement": "effect on the body weight of nude mice", "setting": "[7]", "result": "less effect on the body weight"}, {"measurement": "safety", "setting": "[7]", "result": "better safety"}, {"measurement": "anti-tumor effect", "setting": "[7]; BALB/c female nude mice", "result": "good anti-tumor effect"}, {"measurement": "proliferation inhibition activity", "setting": "Ba/F3 EGFR G719S/T263P; Ba/F3 EGFR G719S/T263P, result in words", "result": "good proliferation inhibition activity"}, {"measurement": "IC50", "setting": "Ba/F3 EGFR G719S/T263P", "result": 37, "unit": "nM"}]}
